Measurements: patent US20150031686A1, “PHENYL-OXAZOLYL DERIVATIVES, PREPARATION METHOD THEREOF, AND RELATED APPLICATION OF THE PHENYL-OXAZOLYL DERIVATIVES AS AN IMPDH INHIBITOR” (INSTITUTE OF MEDICINAL BIOTECHNOLOGY, CHINESE ACADEMY OF …, priority 2012, published 2015)
In brackets after ≈: the same amount, converted by molar mass.

Tested on: Coxsackie virus type B3 (COX-B3)
Assay: Anti-Coxsackie virus type B3 (COX-B3) activity, CPE in Vero cells
Type: cell-based
Settings: Reed-Muench
Experimental: With Vero (African green monkey kidney) cells as viral hosts, inhibitory effects of the compounds of present invention on the grades of pathological lesions by coxsackievirus B3 (COX-B3), B6 (COX-B6) viruses in Vero cells were determined. The measured results of viral inhibitory activity of the compounds are shown in Table 3 and Table 4; wherein RBV is the control drug ribavirin. The inhibitory activities of the measured compounds against coxsackievirus B3, B6 were stronger than the control.
Screening of Anti-B3, B6 Type Coxsackie Viruses (COX-B3, COX-B6) Activity of the Samples
Prepare stock solutions of COX-B3 (or COX-B6) virus strains as well as tested compounds in DMSO before use. Before tests, dilute the stock solution with culture solution into a certain concentration and then dilute 3 times to make a total of eight dilutions. Use ribavirin (RBV) as positive control. Test procedures are as follows: seed Vero cells into 96-well culture plates, infect with 10^−5 Coxsackie virus of B3 (or B6) type, 24 hours later; adsorb subsequently for 2 hours, then discard the virus solution, add in the sample compounds and the positive control according to the abovementioned dilutions, set cell control wells and virus control wells simultaneously. When the cytopathic effect (CPE) of cells in the virus control wells reach 4+, observe CPE of the cells in each group. Use Reed-Muench method to calculate 50% inhibitory concentration (IC50) of the sample compounds against coxsackie virus B3 (or B6) type.

IC50 [µg/mL] | SMILES | IC50, anti-Coxsackie virus type B3 (COX-B3) [µg/mL]
0.24 (≈ 0.763 µM) | COc1cc(CNCc2ccc(C)s2)ccc1-c1cnco1 [Compound 76, N-(5-methylthien-2-ylmethyl)-3-methoxy-4-(oxazol-5-yl) benzylamine] | –
0.46 (≈ 1.43 µM) | COc1cc(NCc2ccc3c(c2)CCO3)ccc1-c1cnco1 [Compound 100, N-(2,3-dihydobenzofuro-5-ylmethyl)-3-methoxy-4-(oxazol-5-yl) aniline] | –
0.35 (≈ 1.05 µM) | COc1cc(NCc2ccc(SC)s2)ccc1-c1cnco1 [Compound 102, N-(5-methylthiothien-2-ylmethyl)-3-methoxy-4-(oxazol-5-yl) aniline] | –
0.44 (≈ 1.31 µM) | COc1cc(NCc2ccc3sccc3c2)ccc1-c1cnco1 [Compound 106, N-(benzothien-5-ylmethyl)-3-methoxy-4-oxazol-5-yl aniline] | –
0.45 (≈ 1.21 µM) | COc1cc(NCc2cccc3c2oc2ccccc23)ccc1-c1cnco1 [Compound 75, N-(dibenzofuran-4-ylmethyl)-3-methoxy-4-(oxazol-5-yl) aniline] | –
0.36 (≈ 0.866 µM) | COc1cc(NCc2ccc3c(c2)Sc2ccccc2N3C)ccc1-c1cnco1 [Compound 88, N-(10-methyl-10H-phenothiazin-3-ylmethyl)-3-methoxy-4-oxazol-5-yl aniline] | –
0.55 (≈ 1.45 µM) | COc1cc(NCc2c3ccccc3cc3ccccc23)ccc1-c1cnco1 [Compound 95, N-(anthracen-9-ylmethyl) 3-methoxy-4-(oxazol-5-yl) aniline] | –
0.42 (≈ 1 µM) | COc1cc(NCC2=C(Cl)c3cc(Cl)ccc3SC2)ccc1-c1cnco1 [Compound 83, N-(4,6-dichloro-2H-sulfurbenzopyran-3-ylmethyl)-3-methoxy-4-(oxazol-5-yl) aniline] | –
0.35 (≈ 1.05 µM) | COc1cc(CNCc2ccc(Cl)s2)ccc1-c1cnco1 [Compound 77, N-(5-chlorothien-2-ylmethyl)-3-methoxy-4-(oxazol-5-yl) benzylamine] | –
0.45 (≈ 1 µM) | COc1cc(NCc2ccc(-c3ccc(C(F)(F)F)cc3Cl)o2)ccc1-c1cnco1 [Compound 104, N-[5-(2-chloro-4-trifluoromethylphenyl)furan-2-ylmethyl]-3-methoxy-4-oxazol-5-yl aniline] | –
0.28 (≈ 0.785 µM) | Clc1cc(CNCc2cccc3nsnc23)ccc1-c1cnco1 [Compound 91, N-(benzo[1,2,5]-thiadiazol-4-ylmethyl)-3-chloro-4-oxazol-5-yl benzylamine] | –
0.88 (≈ 2.62 µM) | COc1cc(NS(=O)(=O)c2cccs2)ccc1-c1cnco1 [Compound 98, N-(thien-2-ylsulfonyl)-3-methoxy-4-oxazole-5-yl aniline] | –
1.43 (≈ 4.76 µM) | COc1cc(NCc2ccc(CO)o2)ccc1-c1cnco1 [Compound 96] | –
0.63 (≈ 1.88 µM) | COc1cc(NCCc2noc3ccccc23)ccc1-c1cnco1 [Compound 74, N-(1,2-benzisoxazol-3-ylethyl)-3-methoxy-4-(oxazol-5-yl) aniline] | –
1.23 (≈ 4.15 µM) | COc1cc(NC/C=C/c2ccoc2)ccc1-c1cnco1 [Compound 105, N-(furan-3-ylpropen-1-yl)-3-methoxy-4-oxazol-5-yl aniline] | –
0.34 (≈ 0.976 µM) | COc1cc(CNCc2ccc3c(cnn3C)c2)ccc1-c1cnco1 [Compound 86, N-(1-methyl-1H-indazole-5-methyl)-3-methoxy-4-(oxazol-5-yl) benzylamine] | –
0.68 (≈ 1.72 µM) | COc1cc(NCc2c3ccccc3nc3ccc(C)cc23)ccc1-c1cnco1 [Compound 94, N-(2-methylacridine-9-methyl)-3-methoxy-4-(oxazol-5-yl) aniline] | –
0.88 (≈ 2.42 µM) | COc1cc(CNCc2ccc(Br)o2)ccc1-c1cnco1 [Compound 93, N-(5-bromofuran-2-ylmethyl)-3-methoxy-4-(oxazol-5-yl) benzylamine] | –
0.36 (≈ 1.07 µM) | COc1cc(CNCc2cccc3nonc23)ccc1-c1cnco1 [Compound 78, N-(benzo[1,2,5]oxadiazol-4-ylmethyl)-3-methoxy-4(oxazol-5-yl) benzylamine] | –
0.35 (≈ 0.877 µM) | COc1cc(CN(C)Cc2csc3ccc(Cl)cc23)ccc1-c1cnco1 [Compound 87, N-methyl-N-(5-chlorobenzothien-3-ylmethyl)-3-methoxy-4-(oxazol-5-yl) benzylamine] | –
1.88 (≈ 9.88 µM) | COc1ccc(-c2cnco2)cc1N [Compound 67, 2-methoxy-5-(oxazol-5-yl) aniline] | –
0.35 (≈ 0.923 µM) | COc1cc(NCCc2ccc(Br)s2)ccc1-c1cnco1 [Compound 73, N-[2-(5-bromothien-2-yl)-ethyl]-3-methoxy-4-(oxazol-5-yl) aniline] | –

The remaining lines, values behind:

SMILES | IC50 [µg/mL] | IC50, anti-Coxsackie virus type B3 (COX-B3) [µg/mL]
COc1ccc(-c2cnco2)cc1/N=C/c1cc(Cl)cs1 [Compound 29, N-(4-chlorothien-2-ylmethylene)-2-methoxy-5-(oxazol-5-yl)-aniline] | 10.7 (≈ 33.5 µM) | –
COc1ccc(-c2cnco2)cc1NCc1csc(-c2ccccc2)c1 [Compound 36, N-(5-phenylthien-3-ylmethyl)-2-methoxy-5-(oxazol-5-yl) aniline] | 0.59 (≈ 1.63 µM) | –
COc1ccc(-c2cnco2)cc1NCc1ccc(Br)o1 [Compound 45, N-(5-bromofuran-2-ylmethyl)-2-methoxy-5-(oxazol-5-yl) aniline] | 0.88 (≈ 2.52 µM) | –
COc1cc(NCc2nc3ccccc3s2)ccc1-c1cnco1 [Compound 8, N-(benzothiazol-2-ylmethyl)-3-methoxy-4-(oxazol-5-yl) aniline] | 0.45 (≈ 1.33 µM) | –
COc1cc(NCc2ccc(C(=O)Nc3cc(OC)c(OC)c(OC)c3)o2)ccc1-c1cnco1 [Compound 47, N-2-(3,4,5-trimethoxyphenylaminocarbonyl) furan-5-ylmethyl 3-methoxy-4-(oxazol-5-yl)aniline] | 0.56 (≈ 1.17 µM) | –
COc1ccc(-c2cnco2)cc1NCC1CCOCC1 [Compound 37, N-(tetrahydropyran-4-ylmethyl)-2-methoxy-5-oxazol-5-yl aniline] | 0.63 (≈ 2.18 µM) | –
COc1ccc(-c2cnco2)cc1NCc1csc(Br)c1 [Compound 35, N-(5-bromothien-3-ylmethyl)-2-methoxy-5-(oxazol-5-yl) aniline] | 0.57 (≈ 1.56 µM) | –
COc1cc(NCc2csc(Cl)c2)ccc1-c1cnco1 [Compound 14, N-(5-chlorothien-3-ylmethyl)-3-methoxy-4-(oxazol-5-yl) aniline] | 0.44 (≈ 1.37 µM) | –
COc1ccc(-c2cnco2)cc1NCc1ccc(-c2ccccc2)s1 [Compound 26, N-(5-phenylthien-2-ylmethyl)-2-methoxy-5-(oxazol-5-yl) aniline] | 0.57 (≈ 1.57 µM) | –
COc1ccc(-c2cnco2)cc1NCc1c(C)noc1C [Compound 23, N-(3,5-dimethylisoxazol-4-ylmethyl)-2-methoxy-5-(oxazol-5-yl) aniline] | 0.76 (≈ 2.54 µM) | –
COc1cc(NCc2cncn2C)ccc1-c1cnco1 [Compound 17, N-(1-methyl-1H-imidazol-5-ylmethyl)-3-methoxy-4-(oxazol-5-yl) aniline] | 2.56 (≈ 9 µM) | –
C#CCN(Cc1cc(CC)sc1C)c1ccc(-c2cnco2)c(OC)c1 [Compound 13, N-(5-ethyl-2-methylthien-3-ylmethyl)-N-(3-methoxy-4-oxazole-5-phenyl) propyn-2-ylamine] | – | 0.30 (≈ 0.819 µM)
COc1cc(-c2cnco2)c(NCc2ccnc3ccccc23)cc1O [Compound 58, 2-methoxy-4-(oxazol-5-yl)-5-[(quinolin-4-ylmethyl)-amino] phenol] | 3.22 (≈ 9.27 µM) | –
COc1ccc(-c2cnco2)cc1/N=C/c1ccsc1 [Compound 39, N-(thien-3-ylmethylene)-2-methoxy-5-(oxazol-5-yl)-aniline] | 11.1 (≈ 39.1 µM) | –
COc1cc(N(C)Cc2csc(C)c2)ccc1-c1cnco1 [Compound 12, N-methyl-N-(5-methylthien-3-ylmethyl)-3-methoxy-4-(oxazol-5-yl) aniline] | 0.23 (≈ 0.732 µM) | –
COc1ccc(-c2cnco2)cc1NCc1cnn(-c2ccccc2)n1 [Compound 28, N-(2-phenyl-2H-1,2,3-triazol-4-ylmethyl)-(2-methoxy-5-oxazole-5-yl) aniline] | 1.23 (≈ 3.54 µM) | –
COc1ccc(-c2cnco2)cc1NCC1CCN(C)CC1 [Compound 33, N-(2-methoxy-5-oxazol-5-ylphenyl)-1-methylpiperidin-4-yl methylamine] | 0.64 (≈ 2.12 µM) | –
COc1cc(NCc2cccn2C)ccc1-c1cnco1 [Compound 51, N-(1-methyl-1H-pyrrol-2-ylmethyl)-3-methoxy-4-(oxazol-5-yl) aniline] | 2.47 (≈ 8.72 µM) | –
COc1ccc(-c2cnco2)cc1NCc1csc(Cl)c1 [Compound 34, N-(5-chlorothien-3-ylmethyl)-2-methoxy-5-(oxazol-5-yl) aniline] | 0.57 (≈ 1.78 µM) | –
COCc1ccc(CNc2cc(-c3cnco3)ccc2OC)o1 [Compound 48, N-(5-methoxymethylfuran-2-ylmethyl)-2-methoxy-5-(oxazol-5-yl) aniline] | 0.5 (≈ 1.59 µM) | –
COc1cc(NCc2ncc(Cl)nc2Cl)ccc1-c1cnco1 [Compound 44, N-(3,5-dichloroperazin-2-ylmethyl)-3-methoxy-4-(oxazol-5-yl) aniline] | 0.69 (≈ 1.96 µM) | –
COc1ccc(-c2cnco2)cc1NCc1c(C)nn(C)c1Cl [Compound 27, N-(5-chloro-1,3-dimethyl-1H-pyrazol-4-ylmethyl)-2-methoxy-5-(oxazol-5-yl) aniline] | 1.47 (≈ 4.42 µM) | –
COc1cc(/N=C/c2csc(C)c2)ccc1-c1cnco1 [Compound 19, N-(5-methylthien-3-ylmethylene)-3-methoxy-4-(oxazol-5-yl) aniline] | 12.8 (≈ 43 µM) | –
COc1ccc(-c2cnco2)cc1NCc1coc2ccccc12 [Compound 50, N-(benzofuran-3-ylmethyl)-2-methoxy-5-(oxazol-5-yl) aniline] | 0.46 (≈ 1.44 µM) | –
